Results on 17 compounds are retold here after US20110136792A1, “NOVEL CARBOXYLIC ACID ANALOGS AS GLYCOGEN SYNTHASE ACTIVATORS” (priority 2009, published 2011).

By EC50 is commonly meant the concentration at which the effect is half-maximal.

The assay relates to glycogen synthase. Description: Glycogen Synthase (GS) Assay. To be noted: coupled pyruvate kinase/lactate dehydrogenase assay, absorbance at 340 nm; for EC50: compound concentration needed to give 50% maximum activation; for GS SC200: compound concentration needed to stimulate 200% of the enzyme activity. Format: biochemical. The method, then: The following tests were carried out in order to determine the activity of the compounds of formula (I).
Twelve μL per well of substrate solution containing glycogen (4.32 mg/ml), 2.67 mM UDP-glucose, 21.6 mM phospho(enol)pyruvate and 2.7 mM NADH in 30 mM glycylglycine, pH 7.3 buffer was added into a polystyrene 384-well assay plate (BD Biosciences).
Compound solutions (8 μL/well) at various concentrations (0-300 μM) were added to the assay plate (columns 5-24). Compound solution contains 30 mM glycylglycine, pH 7.3, 40 mM KCl, 20 mM MgCl2, 9.2% DMSO, with (columns 15-24) or without (columns 5-14) 20 mM glucose 6-phosphate.
Enzyme solution (12 μL/well) containing glycogen synthase (16.88 μg/ml), pyruvate kinase (0.27 mg/ml), lactate dehydrogenase (0.27 mg/ml) in 50 mM Tris-HCl, pH 8.0, 27 mM DTT and bovine serum albumin (BSA, 0.2 mg/ml) was added to the assay plate (columns 3-24). As a blank control, enzyme solution without glycogen synthase was added into the top half wells of columns 1-2. To the bottom half wells of columns 1-2 were added a known activator, glucose 6-phosphate (at final concentration 5 mM) in addition to the enzyme solution. The reaction mixture was incubated at room temperature. The assay plate was then read for absorbance at 340 nm on an Envision reader every 3 minutes up to a total of 15 minutes.
The enzyme activity (with or without compound) was calculated by the reaction rate and represented by the optical density change (δOD) per minute. Percent stimulation of glycogen synthase activity by a compound at various concentrations was calculated by the following formula: […]
Where Rs is the reaction rate of the enzyme in the presence of compound and Rt is the reaction rate of the enzyme in the absence of compound.
SC200 is defined as the compound concentration that is needed to stimulate 200% of the enzyme activity. EC50 is defined as the compound concentration that is needed to give 50% maximum activation.
Compounds from Examples 1 through Example 64 were assayed according to assay procedures described above and the result is listed in Table 1 below: […]

For the compound `O=C(O)[C@H]1CCS(=O)(=O)N1Cc1cccc(COc2ccc(-c3cc(F)c(F)cc3F)cc2)c1` [Example 47, (R)-1,1-Dioxo-2-[3-(2′,4′,5′-trifluoro-biphenyl-4-yloxymethyl)-benzyl]-1lambda*6*-isothiazolidine-3-carboxylic acid], the midpoint of the response, the EC50, lay at 1820 nM and the “GS SC200” value was 0.62 µM.
With `Cc1cc(F)c(F)cc1-c1ccc(OCc2cccc(CN3[C@H](C(=O)O)CCS3(=O)=O)c2)cc1` [Example 48, (S)-2-[3-(4′,5′-Difluoro-2′-methyl-biphenyl-4-yloxymethyl)-benzyl]-1,1-dioxo-1lambda*6*-isothiazolidine-3-carboxylic acid], the EC50 was found to be 110 nM and the “GS SC200” value is 0.01 µM.
With `Cc1cc(F)c(F)cc1-c1ccc(OCc2cccc(CN3[C@@H](C(=O)O)CCS3(=O)=O)c2)cc1` [Example 49, (R)-2-[3-(4′,5′-Difluoro-2′-methyl-biphenyl-4-yloxymethyl)-benzyl]-1,1-dioxo-1lambda*6*-isothiazolidine-3-carboxylic acid], the EC50 was 890 nM and the “GS SC200” value was found to be 0.35 µM.
With `O=C(O)[C@H]1CCS(=O)(=O)N1Cc1cccc(COc2ccc(-c3cc(F)c(F)cc3Cl)cc2)c1` [Example 50, (R)-2-[3-(2′-Chloro-4′,5′-difluoro-biphenyl-4-yloxymethyl)-benzyl]-1,1-dioxo-1lambda*6*-isothiazolidine-3-carboxylic acid], the concentration for a half-maximal effect (EC50) came to 840 nM and the “GS SC200” value is 0.42 µM.
`O=C(O)[C@@H]1CCS(=O)(=O)N1Cc1cccc(COc2ccc(-c3cc(F)c(F)cc3Cl)cc2)c1` [Example 51, (S)-2-[3-(2′-Chloro-4′,5′-difluoro-biphenyl-4-yloxymethyl)-benzyl]-1,1-dioxo-1lambda*6*-isothiazolidine-3-carboxylic acid]: a half-maximal effect (EC50) was put at 100 nM and the “GS SC200” value turned out to be 0.03 µM.
In the same order, the values of `COc1cc(F)c(F)cc1-c1ccc(OCc2cccc(CN3C(=O)CC[C@H]3C(=O)O)c2)cc1` [Example 52, (S)-1-[3-(4′,5′-Difluoro-2′-methoxy-biphenyl-4-yloxymethyl)-benzyl]-5-oxo-pyrrolidine-2-carboxylic acid] are 120 nM and 0.02 µM.
As to `O=C(O)[C@@H]1CCC(=O)N1Cc1cccc(COc2ccc(-c3cc(F)c(F)cc3F)cc2)c1` [Example 53, (S)-5-Oxo-1-[3-(2′,4′,5′-trifluoro-biphenyl-4-yloxymethyl)-benzyl]-pyrrolidine-2-carboxylic acid], the half-maximal effective concentration (EC50) is 130 nM and the “GS SC200” value came out at 0.03 µM.
On to `O=C(O)C(F)(F)F.O=C(O)[C@@H]1CCCN1Cc1cccc(COc2ccc(-c3ccc(F)cc3F)cc2)c1` [Example 54, (S)-1-[3-(2′,4′-Difluoro-biphenyl-4-yloxymethyl)-benzyl]-pyrrolidine-2-carboxylic acid; trifluoro-acetic acid salt], for which a half-maximal effect (EC50) was put at 3710 nM and the “GS SC200” value is 0.90 µM.
Consider `COc1cc(F)c(F)cc1-c1ccc(OCc2cccc(CN3[C@@H](C(=O)O)CCCS3(=O)=O)c2)cc1` [Example 55, (R)-2-[3-(4′,5′-Difluoro-2′-methoxy-biphenyl-4-yloxymethyl)-benzyl]-1,1-dioxo-1lambda*6*-[1,2]thiazinane-3-carboxylic acid], for which the EC50 was 330 nM and the “GS SC200” value was determined as 0.16 µM.
For the compound `COc1cc(F)c(F)cc1-c1ccc(OCc2cccc(CN3[C@H](C(=O)O)CCCS3(=O)=O)c2)cc1` [Example 56, (S)-2-[3-(4′,5′-Difluoro-2′-methoxy-biphenyl-4-yloxymethyl)-benzyl]-1,1-dioxo-1lambda*6*-[1,2]thiazinane-3-carboxylic acid], the midpoint of the response, the EC50, lay at 110 nM and the “GS SC200” value was 0.04 µM.
In the same order, the values of `O=C(O)[C@H]1CCCS(=O)(=O)N1Cc1cccc(COc2ccc(-c3cc(F)c(F)cc3F)cc2)c1` [Example 57, (R)-1,1-Dioxo-2-[3-(2′,4′,5′-trifluoro-biphenyl-4-yloxymethyl)-benzyl]-1lambda*6*-[1,2]thiazinane-3-carboxylic acid] are 2340 nM and 1.22 µM.
In the same order, the values of `O=C(O)[C@@H]1CCCS(=O)(=O)N1Cc1cccc(COc2ccc(-c3cc(F)c(F)cc3F)cc2)c1` [Example 58, (S)-1,1-Dioxo-2-[3-(2′,4′,5′-trifluoro-biphenyl-4-yloxymethyl)-benzyl]-1lambda*6*-[1,2]thiazinane-3-carboxylic acid] are 60 nM and 0.04 µM.
As for `O=C(O)[C@H]1CCS(=O)(=O)N1Cc1csc(COc2ccc(-c3cc(F)c(F)cc3F)cc2)n1` [Example 59, (R)-1,1-Dioxo-2-[2-(2′,4′,5′-trifluoro-biphenyl-4-yloxymethyl)-thiazol-4-ylmethyl]-1lambda*V-isothiazolidine-3-carboxylic acid], the EC50 was found to be 16600 nM and the “GS SC200” value is 6.06 µM.
As to `O=C(O)[C@@H]1CCS(=O)(=O)N1Cc1csc(COc2ccc(-c3cc(F)c(F)cc3F)cc2)n1` [Example 60, (S)-1,1-Dioxo-2-[2-(2′,4′,5′-trifluoro-biphenyl-4-yloxymethyl)-thiazol-4-ylmethyl]-1lambda*6*-isothiazolidine-3-carboxylic acid], it took 2190 nM to reach a half-maximal effect (EC50) and the “GS SC200” value is 1.74 µM.
As to `COc1cc(F)c(F)cc1-c1ccc(OCc2nc(CN3[C@@H](C(=O)O)CCS3(=O)=O)cs2)cc1` [Example 61, (R)-2-[2-(4′,5′-Difluoro-2′-methoxy-biphenyl-4-yloxymethyl)-thiazol-4-ylmethyl]-1,1-dioxo-1lambda*6*-isothiazolidine-3-carboxylic acid], the EC50 was found to be 1170 nM and the “GS SC200” value was 0.78 µM.
As to `COc1cc(F)c(F)cc1-c1ccc(OCc2nc(CN3[C@H](C(=O)O)CCS3(=O)=O)cs2)cc1` [Example 62, (S)-2-[2-(4′,5′-Difluoro-2′-methoxy-biphenyl-4-yloxymethyl)-thiazol-4-ylmethyl]-1,1-dioxo-1lambda*6*-isothiazolidine-3-carboxylic acid], a half-maximal response (EC50) required 430 nM and the “GS SC200” value turned out to be 0.26 µM.
On to `COc1cc(F)c(F)cc1-c1ccc(OCc2cncc(CN3C(C(=O)O)CCS3(=O)=O)c2)cc1` (stereo not shown) [Example 63, 2-[5-(4′,5′-Difluoro-2′-methoxy-biphenyl-4-yloxymethyl)-pyridin-3-ylmethyl]-1,1-dioxo-1lambda*6*-isothiazolidine-3-carboxylic acid], for which the midpoint of the response, the EC50, lay at 550 nM and the “GS SC200” value is 0.01 µM.
